# Source: patent US11752138B2 (VANDERBILT UNIVERSITY, priority 2020, dated 2023)
# Molecular target: Human LDHA (Homo sapiens (Human), UniProt P00338)
# Assay: human LDHA primary biochemical assay (Example 1)
# Details: biochemical LDHA inhibitory activity, assay of Example 1
# Text: This example describes a human LDHA primary biochemical assay employed in the characterization of a compound of Formula I in an embodiment of the dislcosure.
# Test compounds were placed in a Greiner Bio-One (Monroe, N.C.) 1536-well black solid bottom assay plate. 200 millimolar (mM) Tris HCl, pH 7.4, 100 micromolar (μM) EDTA and 0.01% TWEEN-20™, final concentration, was used as the assay buffer. The LDHA reagent was 2 nanomolar (nM) Human LDHA (Meridian Life Science, Inc., Memphis, Tenn.), final concentration, in assay buffer. The substrate reagent was 0.06 mM NADH and 0.2 mM sodium pyruvate, final concentration, in assay buffer. The resazurin/diaphorase coupling reagent was 0.037 mM resazurin and 0.133 milligrams per milliliter (mg/mL) diaphorase, final concentration, in assay buffer. The inhibition of LDHA activity was measured by fluorescence emission. […]
row,SMILES,IC50
1,"NS(=O)(=O)c1ccc(Cc2c(-c3ccc(F)c(C4=CCC(C(F)(F)F)CC4)c3)nn(-c3nc(C(=O)O)cs3)c2CC2CC2)cc1F (stereo not shown) [Compound 102, 2-(5-(cyclopropylmethyl)-3-(6-fluoro-4′-(trifluoromethyl)-2′,3′,4′,5′-tetrahydro-[1,1′-biphenyl]-3-yl)-4-(3-fluoro-4-sulfamoylbenzyl)-1H-pyrazol-1-yl)thiazole-4-carboxylic acid]",< 100 nM
2,"NS(=O)(=O)c1ccc(Cc2c(-c3ccc(F)c(C4=Cc5ccccc5C4)c3)nn(-c3nc(C(=O)O)cs3)c2CC2CC2)cc1F [Compound 105, 2-(5-(cyclopropylmethyl)-3-(4-fluoro-3-(1H-inden-2-yl)phenyl)-4-(3-fluoro-4-sulfamoylbenzyl)-1H-pyrazol-1-yl)thiazole-4-carboxylic acid]",< 100 nM
3,"NS(=O)(=O)c1ccc(Cc2c(-c3ccc(F)c(C4=CCC(F)(F)CC4)c3)nn(-c3nc(C(=O)O)cs3)c2CC2CC2)cc1F [Compound 107, 2-(5-(cyclopropylmethyl)-4-(3-fluoro-4-sulfamoylbenzyl)-3-(4′,4′,6-trifluoro-2′,3′,4′,5′-tetrahydro-[1,1′-biphenyl]-3-yl)-1H-pyrazol-1-yl)thiazole-4-carboxylic acid]",< 100 nM
4,"NS(=O)(=O)c1ccc(Cc2c(-c3ccc(F)c(C4=CCC5(CC4)CC5)c3)nn(-c3nc(C(=O)O)cs3)c2CC2CC2)cc1F [Compound 108, 2-(5-(cyclopropylmethyl)-3-(4-fluoro-3-(spiro[2.5]oct-5-en-6-yl)phenyl)-4-(3-fluoro-4-sulfamoylbenzyl)-1H-pyrazol-1-yl)thiazole-4-carboxylic acid]",< 100 nM
5,"CCC#Cc1cc(-c2nn(-c3nc(C(=O)O)cs3)c(CC3CC3)c2Cc2ccc([S+](N)(=O)[O-])c(F)c2)ccc1F [Compound 109, 2-(3-(3-(but-1-yn-1-yl)-4-fluorophenyl)-5-(cyclopropylmethyl)-4-(3-fluoro-4-sulfamoylbenzyl)-1H-pyrazol-1-yl)thiazole-4-carboxylic acid]",< 100 nM
6,"Cc1ccc(C2CC(c3cccc(-c4nn(-c5nc(C(=O)O)cs5)c(CC5CC5)c4Cc4ccc(S(N)(=O)=O)c(F)c4)c3)C2)s1 (stereo not shown) [Compound 133, 2-(5-(cyclopropylmethyl)-4-(3-fluoro-4-sulfamoylbenzyl)-3-(3-(3-(5-methylthiophen-2-yl)cyclobutyl)phenyl)-1H-pyrazol-1-yl)thiazole-4-carboxylic acid]",< 100 nM
7,"Cc1ccc(C#Cc2cccc(-c3nn(-c4nc(C(=O)O)cs4)c(C4CC4C4CC4)c3Cc3ccc(S(N)(=O)=O)c(F)c3)c2)s1 (stereo not shown) [Compound 134, 2-(5-([1,1′-bi(cyclopropan)]-2-yl)-4-(3-fluoro-4-sulfamoylbenzyl)-3-(3-((5-methylthiophen-2-yl)ethynyl)phenyl)-1H-pyrazol-1-yl)thiazole-4-carboxylic acid]",100 to 1000 nM
8,"NS(=O)(=O)c1ccc(Cc2c(-c3ccc(F)c(-c4ccc(F)c(F)c4)c3)nn(-c3nc(C(=O)O)cs3)c2CC2CC2)cc1F [Compound 136, 2-(5-(cyclopropylmethyl)-4-(3-fluoro-4-sulfamoylbenzyl)-3-(3′,4′,6-trifluoro-[1,1′-biphenyl]-3-yl)-1H-pyrazol-1-yl)thiazole-4-carboxylic acid]",< 100 nM
9,"NS(=O)(=O)c1ccc(Cc2c(-c3ccc(F)c(-c4ccc(C(F)(F)F)cc4)c3)nn(-c3nc(C(=O)O)cs3)c2CC2CC2)cc1F [Compound 138, 2-(5-(cyclopropylmethyl)-3-(6-fluoro-4′-(trifluoromethyl)-[1,1′-biphenyl]-3-yl)-4-(3-fluoro-4-sulfamoylbenzyl)-1H-pyrazol-1-yl)thiazole-4-carboxylic acid]",< 100 nM
10,"NS(=O)(=O)c1ccc(Cc2c(-c3ccc(F)c(-c4ccc(Cl)cc4)c3)nn(-c3nc(C(=O)O)cs3)c2CC2CC2)cc1F [Compound 139, 2-(3-(4′-chloro-6-fluoro-[1,1′-biphenyl]-3-yl)-5-(cyclopropylmethyl)-4-(3-fluoro-4-sulfamoylbenzyl)-1H-pyrazol-1-yl)thiazole-4-carboxylic acid]",< 100 nM
11,"CC(C)c1ccc(-c2cc(-c3nn(-c4nc(C(=O)O)cs4)c(CC4CC4)c3Cc3ccc(S(N)(=O)=O)c(F)c3)ccc2F)cc1 [Compound 142, 2-(5-(cyclopropylmethyl)-3-(6-fluoro-4′-isopropyl-[1,1′-biphenyl]-3-yl)-4-(3-fluoro-4-sulfamoylbenzyl)-1H-pyrazol-1-yl)thiazole-4-carboxylic acid]",100 to 1000 nM
12,"NS(=O)(=O)c1ccc(Cc2c(-c3ccc(F)c(-c4ccc5c(c4)CCCC5)c3)nn(-c3nc(C(=O)O)cs3)c2CC2CC2)cc1F [Compound 143, 2-(5-(cyclopropylmethyl)-3-(4-fluoro-3-(5,6,7,8-tetrahydronaphthalen-2-yl)phenyl)-4-(3-fluoro-4-sulfamoylbenzyl)-1H-pyrazol-1-yl)thiazole-4-carboxylic acid]",< 100 nM
13,"NS(=O)(=O)c1ccc(Cc2c(-c3ccc(F)c(-c4ccc(Cl)c(F)c4)c3)nn(-c3nc(C(=O)O)cs3)c2CC2CC2)cc1F [Compound 144, 2-(3-(4′-chloro-3′,6-difluoro-[1,1′-biphenyl]-3-yl)-5-(cyclopropylmethyl)-4-(3-fluoro-4-sulfamoylbenzyl)-1H-pyrazol-1-yl)thiazole-4-carboxylic acid]",< 100 nM
14,"NS(=O)(=O)c1ccc(Cc2c(-c3cccc(C(=O)N4CCCC4)c3)nn(-c3nc(C(=O)O)cs3)c2CC2CC2)cc1 [Compound 145, 2-(5-(cyclopropylmethyl)-3-(3-(pyrrolidine-1-carbonyl)phenyl)-4-(4-sulfamoylbenzyl)-1H-pyrazol-1-yl)thiazole-4-carboxylic acid]",< 100 nM
15,"NS(=O)(=O)c1ccc(Cc2c(-c3ccc(F)c(C4=CCCCC4)c3)nn(-c3nc(C(=O)O)cs3)c2CC2CC2)cc1F [Compound 146, 2-(5-(cyclopropylmethyl)-3-(6-fluoro-2′,3′,4′,5′-tetrahydro-[1,1′-biphenyl]-3-yl)-4-(3-fluoro-4-sulfamoylbenzyl)-1H-pyrazol-1-yl)thiazole-4-carboxylic acid]",< 100 nM
16,"CC(C)(C)NC(=O)c1cc(-c2nn(-c3nc(C(=O)O)cs3)c(CC3CC3)c2Cc2ccc([S+](N)(=O)[O-])c(F)c2)ccc1F [Compound 147, 2-(3-(3-(tert-butylcarbamoyl)-4-fluorophenyl)-5-(cyclopropylmethyl)-4-(3-fluoro-4-sulfamoylbenzyl)-1H-pyrazol-1-yl) thiazole-4-carboxylic acid]",< 100 nM
17,"NS(=O)(=O)c1ccc(Cc2c(-c3ccc(F)c(-c4cccc(Cl)c4)c3)nn(-c3nc(C(=O)O)cs3)c2CC2CC2)cc1F [Compound 149, 2-(3-(3′-chloro-6-fluoro-[1,1′-biphenyl]-3-yl)-5-(cyclopropylmethyl)-4-(3-fluoro-4-sulfamoylbenzyl)-1H-pyrazol-1-yl)thiazole-4-carboxylic acid]",< 100 nM
18,N[S+](=O)([O-])c1ccc(Cc2c(-c3ccc(F)c(C(=O)N4CCCC4)c3)nn(-c3nc(C(=O)O)cs3)c2CC2CC2)cc1F [Compound 154],< 100 nM
19,"NS(=O)(=O)c1ccc(Cc2c(-c3ccc(F)c(-c4ccc5c(c4)CCC5)c3)nn(-c3nc(C(=O)O)cs3)c2CC2CC2)cc1F [Compound 155, 2-(5-(cyclopropylmethyl)-3-(3-(2,3-dihydro-1H-inden-5-yl)-4-fluorophenyl)-4-(3-fluoro-4-sulfamoylbenzyl)-1H-pyrazol-1-yl)thiazole-4-carboxylic acid]",< 100 nM
20,"NS(=O)(=O)c1ccc(Cc2c(-c3ccc(F)c(-c4nc5ccccc5[nH]4)c3)nn(-c3nc(C(=O)O)cs3)c2CC2CC2)cc1F [Compound 160, 2-(3-(3-(1H-benzo[d]imidazol-2-yl)-4-fluorophenyl)-5-(cyclopropylmethyl)-4-(3-fluoro-4-sulfamoylbenzyl)-1H-pyrazol-1-yl)thiazole-4-carboxylic acid]",< 100 nM
21,"NS(=O)(=O)c1ccc(Cc2c(-c3cccc(-c4ccc(C5CC5)cc4)c3)nn(-c3nc(C(=O)O)cs3)c2CC2CC2)cc1F [Compound 183, 2-(3-(4′-cyclopropyl-[1,1′-biphenyl]-3-yl)-5-(cyclopropylmethyl)-4-(3-fluoro-4-sulfamoylbenzyl)-1H-pyrazol-1-yl)thiazole-4-carboxylic acid]",< 100 nM
22,"CC(C)(C)NC(=O)c1cccc(-c2nn(-c3nc(C(=O)O)cs3)c(CC3CC3)c2Cc2ccc([S+](N)(=O)[O-])cc2)c1 [Compound 188, 2-(3-(3-(tert-butylcarbamoyl)phenyl)-5-(cyclopropylmethyl)-4-(4-sulfamoylbenzyl)-1H-pyrazol-1-yl)thiazole-4-carboxylic acid]",< 100 nM
23,"NS(=O)(=O)c1ccc(Cc2c(-c3cccc(-c4nc5ccccc5[nH]4)c3)nn(-c3nc(C(=O)O)cs3)c2CC2CC2)cc1F [Compound 189, 2-(3-(3-(1H-benzo[d]imidazol-2-yl)phenyl)-5-(cyclopropylmethyl)-4-(3-fluoro-4-sulfamoylbenzyl)-1H-pyrazol-1-yl)thiazole-4-carboxylic acid]",< 100 nM
24,"COc1ccc(-c2cc(-c3nn(-c4nc(C(=O)O)cs4)c(CC4CC4)c3Cc3ccc(S(N)(=O)=O)c(F)c3)ccc2F)cc1Cl [Compound 191, 2-(3-(3′-chloro-6-fluoro-4′-methoxy-[1,1′-biphenyl]-3-yl)-5-(cyclopropylmethyl)-4-(3-fluoro-4-sulfamoylbenzyl)-1H-pyrazol-1-yl)thiazole-4-carboxylic acid]",< 100 nM
25,"CN(C)c1cccc(-c2cc(-c3nn(-c4nc(C(=O)O)cs4)c(CC4CC4)c3Cc3ccc(S(N)(=O)=O)c(F)c3)ccc2F)c1 [Compound 194, 2-(5-(cyclopropylmethyl)-3-(3′-(dimethylamino)-6-fluoro-[1,1′-biphenyl]-3-yl)-4-(3-fluoro-4-sulfamoylbenzyl)-1H-pyrazol-1-yl)thiazole-4-carboxylic acid]",< 100 nM
